According to US20240156767A1, “SCREENING METHOD FOR GLP-1 SECRETION REGULATION AGENT, GLP-1 SECRETION REGULATION AGENT, COMPOSITION FOR PREVENTING OR AMELIORATING DIABETES, OBESITY, POSTPRANDIAL HYPERGLYCEMIA, NEURODEGENERATIVE DISEASE, HYPOGLYCEMIA, ADIPOSITY, OR NESIDIOBLASTOSIS, METHOD FOR PROMOTING SECRETION OF GLP-1 IN …” (The Nisshin OilliO Group, Ltd., priority 2021, published 2024):

System: C57BL/6 male mice
Experiment: Glucose tolerance test in mice with triacylglycerols: plasma GLP-1 concentration (ELISA)
Format: in vivo
Settings: 300 μl sample oral per mouse; glucose 2.5 g/kg 60 minutes after sample; blood 30 minutes after glucose; mean±standard error
Experimental: A glucose tolerance test was carried out by the following method to examine effects of administration of triacylglycerol to mice on the plasma GLP-1 secretion during glucose tolerance.
To the PBS solution (10 ml) obtained in the same manner as in the (1-1) above, 50 mg of carboxymethyl cellulose (trade name “Carboxymethyl cellulose sodium”, manufactured by FUJIFILM Wako Pure Chemical Industries, Ltd.) was added and mixed to obtain a carrier solution. To the obtained carrier solution, 2 g of triacylglycerol (trade name “Tridecanoin <Tricaprin>”, manufactured by New Check Prep Co., Ltd.) in which the constituent fatty acids were all capric acid was added and mixed while heating to obtain TriC10 sample.
A carrier solution was obtained in the same manner as in the (1-2) above. […]
Plasma was prepared from the obtained blood by a conventional method, and the plasma GLP-1 concentration (pM) was measured. Note here that the plasma GLP-1 concentration was measured by ELISA using a commercially available kit (trade name “Glucagon Like Peptide-1 (Active) ELISA”, manufactured by Sigma-Aldrich). […]

CCCCCCCCCC(=O)OCC(COC(=O)CCCCCCCCC)OC(=O)CCCCCCCCC [TriC10, Tridecanoin <Tricaprin>]
GLP-1 CONCENTRATION (plasma): 2.803 ± 0.952 pM
